According to patent publication US9387204B2, “Fused bicyclic imidazoles” (BAYER INTELLECTUAL PROPERTY GmbH, priority 2007, dated 2016):
pIC50: −log10 of the molar value.

How the values were obtained:
phospho-GSK3 (Ser9) = assay: Cellular pGSK3 assay (phospho-GSK3 ELISA); type: cell-based; conditions: Homo sapiens, MCF7 cells, 48 h, read-out: Cellular pGSK3 pathway assay
Protocol: In order to study the cellular activity of the compounds according to the present invention, an ELISA-based assay has been established for the phosphorylated protein glycogen synthetase kinase 3 (GSK3). The assay is based on a solid phase sandwich ELISA that detects endogenous levels of phosphorylated GSK3 using a phospho-GSK3 (Ser9) specific antibody (BioSource International, Inc.; Catalog #KHO0461). After incubation with cell lysates, the coated antibody captures the phosphorylated GSK3 protein. Following extensive washing, GSK3 polyclonal antibody is added to detect the captured phospho-GSK3 protein. Secondary antibody (anti-rabbit IgG-HRP) is then used to recognize the bound detection antibody. After the second incubation and washing to remove all the excess anti-rabbit IgG-HRP, a substrate solution is added, which is acted upon by the bound enzyme to produce color. The intensity of this colored product is directly proportional to the concentration of GSK-3β [pS9] present in the original specimen.
MCF7 cells (ATCC HTB-22) were seeded into 96 well fate bottom plates at a density of 10000 cells/well. […] Cells were harvested and lysed in cell extraction buffer (10 mM Tris, pH 7.4, 100 mM NaCl, 1 mM EDTA, 1 mM EGTA, 1 mM NaF, 20 mM Na4P2O7, 2 mM Na3VO4, 1% Triton X-100, 10 vol % glycerol, 0.1 vol % SDS, 0.5 vol % deoxycholate, 1 mM phenylmethylsulfonylfluorid (PMSF)). The lysate were centrifuged for 10 min. at 4° C. and the supernatant were transferred to a new tube. 50 μl of sample diluent (standard diluent buffer, Biosource) were added and 100 μl of cell lysate transferred into the tube and vortexed. 100 μl of each diluted cell lysate were added to the appropriate ELISA well plate and incubated for 3 h at room temperature. The plates were washed 4 times with 1× wash buffer (Biosource). 50 μl of detection antibody (GSK3 (Ser9) detection antibody; BioSource) were added to each well and incubated for 30 min. at room temperature. The washing procedure was repeated between each step. 100 μl of HRP-linked secondary antibody (anti-mouse IgG HRP-linked antibody) were added to each well and incubated for 30 min. at room temperature. 100 μl of TMB substrate (0.05 vol % 3,3′,5,5′ tetramethylbenzidine, 0.1 vol % hydrogen peroxide, complex polypeptides in a buffered solution; Biosource) were added to each well and incubated for 30 min. at room temperature. Finally 100 μl of Stop solution (0.05 vol % α and β unsaturated carbonyl compound) were added to each well and the plate were shaked gently for a few seconds. The absorbance was measured at ? 450 nm (Wallac Victor2; Perkin Elmer, USA) within 30 min. after adding the stop solution.
The analysis of the data was performed using a statistical program (Excel; Microsoft, USA) and the IC50 of pGSK3 inhibition was determined.

OvCAR3 cells = assay: Cellular proliferation/cytotoxicity assay (Alamar Blue), OvCAR3 cells; type: cell-based; conditions: Homo sapiens, OVCAR-3, 72 h, Alamar Blue (Resazurin), read-out: Anti-proliferative/Cytotoxic activity (OvCAR3 cells)
Description: Viabilities are expressed as % values.

A549 cells = assay: Cellular proliferation/cytotoxicity assay (Alamar Blue), A549 cells; conditions: Homo sapiens, A549, 72 h, read-out: Anti-proliferative/Cytotoxic activity (A549 cells)
phospho-Akt (Ser473) = assay: Cellular PI3K/Akt pathway assay (phospho-Akt ELISA); type: cell-based; conditions: Homo sapiens; MCF7 cells, β-Heregulin stimulated, 48 h, phospho-Akt1 (Ser473) ELISA
Protocol: In order to study the cellular activity of the compounds according to the present invention, an Enzyme Linked Immunosorbent Assay (ELISA)-based assay has been used specific phospho-AKT. The assay is based on a Sandwich ELISA kit (PathScan™ Phospho-Akt1 (Ser473); Cell Signaling, USA; #7160).
The ELISA Kit detects endogenous levels of phosphorylated Akt protein. A phospho-Akt (Ser473) antibody (Cell Signaling, USA; #9271) has been coated onto the microwells. After incubation with cell lysates, the coated antibody captures the phosphorylated Akt protein. Following extensive washing, Akt1 monoclonal antibody (Cell Signaling, USA; #2967) is added to detect the captured phospho-Akt1 protein. HRP-linked anti-mouse antibody (HRP: horseradish peroxidase; Cell Signaling, USA; #7076) is then used to recognize the bound detection antibody. HRP substrate (=3,3′,5,5′-tetramethylbenzidine (TMB); Cell Signaling, USA; #7160) is added to develop colour. The magnitude of optical density for this developed color is proportional to the quantity of phosphorylated Akt protein. MCF7 cells (ATCC HTB-22) are seeded into 96 well fate bottom plates at a density of 10000 cells/well. 24 hours after seeding, the cells are serum starved using low-serum medium (IMEM media including 0.1% charcoal treated FCS (FCS: fetal calf serum)). […] To stimulate Akt phosphorylation, β-Heregulin (20 ng/ml β-HRG) is added in parallel to the compounds. Wells containing unstimulated control cells (no β-Heregulin stimulation) are incubated with or without the diluted compound. Wells containing untreated control cells (no compound) are filled with medium containing 0.5% v:v DMSO and are or are not stimulated with β-Heregulin.
Cells are harvested and lysed with brief sonification in 1× cell lysis buffer (20 mM Tris (pH7.5), 150 mM NaCl, 1 mM ethylene diaminetetraacetate (EDTA), 1 mM ethylene glycolbis(2-aminoethyl)-N,N,N′,N′-tetraacetic acid (EGTA), 1 vol % Triton X-100, 2.5 mM sodium pyrophosphate, 1 mM β-glycerolphosphate, 1 mM Na3VO4, 1 μg/ml leupeptin). The lysate is centrifuged for 10 min. at 4° C. and the supernatant is transferred to a new tube. 100 μl of sample diluent (0.1 vol % Tween-20, 0.1 vol % sodium azide in phosphate buffered saline (PBS)) are added to a microcentrifuge tube and 100 μl of cell lysate are transferred into the tube and vortexed. 100 μl of each diluted cell lysate are added to the appropriate ELISA well, and incubated overnight at 4° C. The plates are washed 4 times with 1× wash buffer (1 vol % tween-20, 0.33 vol % thymol, in PBS). Next 100 μl of detection antibody (Akt1 (2H10) monoclonal detection antibody; Cell Signaling, USA; #2967) are added to each well and incubation continued for 1 h at 37° C. The washing procedure is repeated between each step. 100 μl of secondary antibody (anti-mouse IgG HRP-linked antibody; Cell Signaling, USA; #7076) are added to each well and incubated for 30 min. at 37° C. Than, 100 μl of TMB substrate (0.05% 3,3′,5,5′ tetramethylbenzidine, 0.1% hydrogen peroxide, complex polypeptides in a buffered solution; Cell Signaling, USA; #7160) are added to each well and incubated for 30 min. at 25° C. Finally 100 μl of STOP solution (0.05 vol % α and β unsaturated carbonyl compound) are added to each well and the plate are shaked gently. The absorbance is measured at ? 450 nm (Wallac Victor2; Perkin Elmer, USA) within 30 min. after adding the STOP solution. The analysis of the data is performed using a statistical program (Excel; Microsoft, USA). Preferred compounds show an inhibitory activity towards Akt phosphorylation below 10 μM.

SMILES | pIC50 (phospho-GSK3 (Ser9)) | pIC50 (OvCAR3 cells) | pIC50 (A549 cells) | pIC50 (phospho-Akt (Ser473))
Fc1ccccc1-c1c(-c2ccc(CN3CCC(c4n[nH]c(-c5ccccn5)n4)CC3)cc2)nc2ncccn12 [Example 41, 3-(2-fluorophenyl)-2-(4-{[4-(5-pyridin-2-yl-1,2,4-triazol-3-yl)piperidin-1-yl]methyl}phenyl)imidazo[1,2-a]pyrimidine] | 5.00 to 6.00 | > 5.00 | < 5.00 | –
c1ccc(-c2nc(C3CCN(Cc4ccc(-c5nc6sccn6c5-c5nccs5)cc4)CC3)n[nH]2)nc1 [Example 42, 6-(4-{[4-(5-pyridin-2-yl-1,2,4-triazol-3-yl)piperidin-1-yl]methyl}phenyl)-5-(1,3-thiazol-2-yl)imidazo[2,1-b][1,3]thiazole] | < 5.00 | > 5.00 | > 5.00 | –
Fc1cc(F)c2nc(-c3ccc(CN4CCC(c5nnc(-c6ccccn6)[nH]5)CC4)cc3)c(-c3ccccc3)n2c1 [Example 44, 6,8-Difluoro-3-phenyl-2-{4-[4-(5-pyridin-2-yl-4H-[1,2,4]triazol-3-yl)-piperidin-1-ylmethyl]-phenyl}-imidazo[1,2-a]pyridine] | 5.00 to 6.00 | > 5.00 | < 5.00 | > 6.00
Cc1cn2c(-c3ccccc3)c(-c3ccc(CN4CCC(c5nnc(-c6ccccn6)[nH]5)CC4)cc3)nc2s1 [Example 46, 2-methyl-5-phenyl-6-[4-({4-[5-(pyridin-2-yl)-4H-1,2,4-triazol-3-yl]piperidin-1-yl}methyl)phenyl]imidazo[2,1-b][1,3]thiazole] | 5.00 to 6.00 | – | > 5.00 | > 6.00
